Measured values from US20160289186A1, “FLUOROMETHYL-SUBSTITUTED PYRROLE CA[…]” (Grunenthal GmbH, priority 2013, published 2016).

Biological target: T1, Human CaV2.2 channels (Homo sapiens, UniProt Q00975)
T1 construct: expressed in transfected cells; host or cells: HEK293
Assay: Fluorescent (FLIPR) assay for CaV2.2 channels using potassium depolarization to induce channel opening
Format: cell-based
Settings: 3 μM compound; 30 mM KCl assay buffer (inactivated channel state); HEK293 cells stably expressing human CaV2.2; read-out: Activity Category: %-Inhib (CaV2.2) @3 μM @30 mM KCl
Outline: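 HEK293 cells stably co-expressing human CaV2.2 with α2δ and β subunits plus Kir2.3, Fluo-4 loaded; compounds preincubated 15 min at 25 °C in 1 mM or 30 mM KCl buffer (inactivated state), pH 7.4. Depolarized by KCl addition; baseline-normalized peak fluorescence (ex 480/em 535 nm) gave inhibition.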

T1 sequence (Q00975 whole entry): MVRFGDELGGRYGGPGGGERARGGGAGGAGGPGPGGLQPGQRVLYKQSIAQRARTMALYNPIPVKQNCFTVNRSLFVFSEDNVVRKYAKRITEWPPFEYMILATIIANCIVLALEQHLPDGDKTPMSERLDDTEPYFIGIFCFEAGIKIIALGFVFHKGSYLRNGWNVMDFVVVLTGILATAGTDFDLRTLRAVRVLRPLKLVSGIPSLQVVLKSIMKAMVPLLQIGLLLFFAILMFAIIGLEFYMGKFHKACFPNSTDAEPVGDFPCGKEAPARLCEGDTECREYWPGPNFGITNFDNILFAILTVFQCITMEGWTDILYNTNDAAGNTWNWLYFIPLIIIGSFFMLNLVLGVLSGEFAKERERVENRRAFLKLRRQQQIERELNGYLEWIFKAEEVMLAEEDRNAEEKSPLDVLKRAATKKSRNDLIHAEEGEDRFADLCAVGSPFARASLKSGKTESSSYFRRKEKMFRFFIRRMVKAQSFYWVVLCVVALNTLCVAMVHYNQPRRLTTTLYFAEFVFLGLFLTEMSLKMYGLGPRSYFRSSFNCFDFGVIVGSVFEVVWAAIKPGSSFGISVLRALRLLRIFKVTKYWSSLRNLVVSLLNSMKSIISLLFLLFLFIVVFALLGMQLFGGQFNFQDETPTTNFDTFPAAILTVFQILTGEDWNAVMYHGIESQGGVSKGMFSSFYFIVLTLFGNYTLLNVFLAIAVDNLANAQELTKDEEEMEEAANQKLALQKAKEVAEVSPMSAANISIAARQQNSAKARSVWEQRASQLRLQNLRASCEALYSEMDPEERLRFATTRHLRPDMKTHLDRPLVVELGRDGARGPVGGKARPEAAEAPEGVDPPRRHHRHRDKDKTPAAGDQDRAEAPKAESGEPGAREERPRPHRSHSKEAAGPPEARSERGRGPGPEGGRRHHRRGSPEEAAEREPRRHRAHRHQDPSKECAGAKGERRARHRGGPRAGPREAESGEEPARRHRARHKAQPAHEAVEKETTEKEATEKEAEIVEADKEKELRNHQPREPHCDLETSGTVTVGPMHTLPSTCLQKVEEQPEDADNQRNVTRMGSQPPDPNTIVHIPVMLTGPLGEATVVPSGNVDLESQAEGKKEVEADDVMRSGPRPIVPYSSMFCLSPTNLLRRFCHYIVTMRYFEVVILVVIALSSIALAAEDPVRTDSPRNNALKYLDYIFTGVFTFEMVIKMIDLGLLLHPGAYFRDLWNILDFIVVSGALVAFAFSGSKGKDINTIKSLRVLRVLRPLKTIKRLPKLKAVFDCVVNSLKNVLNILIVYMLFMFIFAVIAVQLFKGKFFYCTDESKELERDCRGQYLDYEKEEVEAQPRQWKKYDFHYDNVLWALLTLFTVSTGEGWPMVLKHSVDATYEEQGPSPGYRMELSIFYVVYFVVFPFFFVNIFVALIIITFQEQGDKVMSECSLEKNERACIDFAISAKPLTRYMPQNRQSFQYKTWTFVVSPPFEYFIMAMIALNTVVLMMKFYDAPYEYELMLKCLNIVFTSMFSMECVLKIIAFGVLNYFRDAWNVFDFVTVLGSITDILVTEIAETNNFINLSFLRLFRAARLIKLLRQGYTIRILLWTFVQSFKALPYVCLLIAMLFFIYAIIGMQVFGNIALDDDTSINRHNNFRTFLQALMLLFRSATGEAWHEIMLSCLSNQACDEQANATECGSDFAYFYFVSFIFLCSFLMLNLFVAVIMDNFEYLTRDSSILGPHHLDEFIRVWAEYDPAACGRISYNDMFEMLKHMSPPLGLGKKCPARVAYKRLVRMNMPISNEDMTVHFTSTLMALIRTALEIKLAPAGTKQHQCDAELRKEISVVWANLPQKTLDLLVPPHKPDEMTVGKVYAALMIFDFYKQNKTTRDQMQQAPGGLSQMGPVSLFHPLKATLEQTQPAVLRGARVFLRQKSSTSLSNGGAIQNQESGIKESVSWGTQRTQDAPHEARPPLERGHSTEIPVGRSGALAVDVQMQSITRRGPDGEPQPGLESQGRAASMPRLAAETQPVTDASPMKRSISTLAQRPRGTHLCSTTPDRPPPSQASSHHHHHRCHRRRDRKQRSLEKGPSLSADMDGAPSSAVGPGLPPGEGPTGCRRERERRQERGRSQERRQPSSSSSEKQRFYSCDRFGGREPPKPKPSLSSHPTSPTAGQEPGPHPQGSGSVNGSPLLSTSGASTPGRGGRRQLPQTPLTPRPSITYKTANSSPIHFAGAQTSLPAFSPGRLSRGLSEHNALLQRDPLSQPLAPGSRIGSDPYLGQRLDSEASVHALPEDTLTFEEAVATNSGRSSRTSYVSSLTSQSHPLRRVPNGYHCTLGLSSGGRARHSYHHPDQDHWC
T1 sequence (P54284 whole entry, further chain): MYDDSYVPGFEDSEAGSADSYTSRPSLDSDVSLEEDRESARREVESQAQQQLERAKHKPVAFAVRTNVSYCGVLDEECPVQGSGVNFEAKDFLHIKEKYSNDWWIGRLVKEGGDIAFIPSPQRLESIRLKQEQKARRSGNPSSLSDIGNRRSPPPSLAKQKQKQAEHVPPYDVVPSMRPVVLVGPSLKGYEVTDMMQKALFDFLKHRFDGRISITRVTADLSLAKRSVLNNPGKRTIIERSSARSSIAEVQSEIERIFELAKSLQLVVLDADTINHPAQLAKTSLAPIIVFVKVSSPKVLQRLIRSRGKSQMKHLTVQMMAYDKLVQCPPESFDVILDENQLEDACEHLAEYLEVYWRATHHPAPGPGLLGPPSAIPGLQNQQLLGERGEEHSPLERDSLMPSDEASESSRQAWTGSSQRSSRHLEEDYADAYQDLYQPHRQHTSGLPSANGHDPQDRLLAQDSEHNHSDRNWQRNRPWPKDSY
T1 sequence (P54289 25-1103, further chain): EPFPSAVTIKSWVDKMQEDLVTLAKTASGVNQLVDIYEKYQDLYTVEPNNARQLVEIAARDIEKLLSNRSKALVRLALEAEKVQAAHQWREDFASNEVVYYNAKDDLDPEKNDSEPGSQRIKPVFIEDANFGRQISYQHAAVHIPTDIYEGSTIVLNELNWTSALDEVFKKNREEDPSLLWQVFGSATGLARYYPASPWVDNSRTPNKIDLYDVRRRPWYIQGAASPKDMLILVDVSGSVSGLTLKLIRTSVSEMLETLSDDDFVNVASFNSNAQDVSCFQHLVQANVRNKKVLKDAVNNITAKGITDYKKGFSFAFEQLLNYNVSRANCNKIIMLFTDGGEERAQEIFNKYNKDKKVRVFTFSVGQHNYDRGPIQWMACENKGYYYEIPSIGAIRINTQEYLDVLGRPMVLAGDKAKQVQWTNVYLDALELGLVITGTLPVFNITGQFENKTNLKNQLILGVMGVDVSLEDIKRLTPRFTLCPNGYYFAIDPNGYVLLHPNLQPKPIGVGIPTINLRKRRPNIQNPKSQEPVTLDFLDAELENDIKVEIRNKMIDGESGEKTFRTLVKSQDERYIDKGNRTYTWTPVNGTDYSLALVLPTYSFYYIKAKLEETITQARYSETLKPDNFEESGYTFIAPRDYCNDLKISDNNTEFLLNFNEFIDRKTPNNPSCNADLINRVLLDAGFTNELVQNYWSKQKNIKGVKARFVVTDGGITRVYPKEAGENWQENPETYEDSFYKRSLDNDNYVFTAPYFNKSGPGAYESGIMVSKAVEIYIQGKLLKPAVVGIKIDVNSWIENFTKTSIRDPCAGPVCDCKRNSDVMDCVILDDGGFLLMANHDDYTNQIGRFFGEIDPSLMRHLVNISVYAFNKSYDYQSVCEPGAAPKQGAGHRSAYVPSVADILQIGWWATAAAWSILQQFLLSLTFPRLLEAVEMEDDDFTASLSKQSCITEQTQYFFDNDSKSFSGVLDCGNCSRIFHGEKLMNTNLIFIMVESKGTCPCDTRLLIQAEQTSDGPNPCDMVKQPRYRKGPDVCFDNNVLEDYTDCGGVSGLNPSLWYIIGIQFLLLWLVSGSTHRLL

Row | Compound | inhibition at 3 µM
1 | Cc1cc(CN(C)C(=O)c2c(-c3ccc(F)cc3)cc(C(F)(F)F)n2CC2CCCO2)no1 (centres unmarked) [Example 075, 3-(4-Fluorophenyl)-N-methyl-N-[(5-methyl-isoxazol-3-yl)-methyl]-1-(tetrahydro-furan-2-yl-methyl)-5-(trifluoromethyl)-1H-pyrrole-2-carboxylic acid amide] | 75 to 95%
2 | Cc1cnc(CN(C)C(=O)c2c(-c3ccc(F)cc3)cc(C(F)(F)F)n2CC2CCCO2)cn1 (centres unmarked) [Example 077, 3-(4-Fluorophenyl)-N-methyl-N-[(5-methyl-pyrazin-2-yl)-methyl]-1-(tetrahydro-furan-2-yl-methyl)-5-(trifluoromethyl)-1H-pyrrole-2-carboxylic acid amide] | 75 to 95%
3 | CN(CCS(C)(=O)=O)C(=O)c1c(-c2ccc(F)cc2)cc(C(F)(F)F)n1CC1CCCO1 (centres unmarked) [Example 078, 3-(4-Fluorophenyl)-N-methyl-N-(2-methylsulfonyl-ethyl)-1-(tetrahydro-furan-2-yl-methyl)-5-(trifluoromethyl)-1H-pyrrole-2-carboxylic acid amide] | 40 to 75%
4 | O=C1CN(C(=O)c2c(-c3ccc(F)cc3)cc(C(F)(F)F)n2CC2CCCO2)CCN1 (centres unmarked) [Example 079, 4-[3-(4-Fluorophenyl)-1-(tetrahydro-furan-2-yl-methyl)-5-(trifluoromethyl)-1H-pyrrole-2-carbonyl]-piperazin-2-one] | 40 to 75%
5 | CC1(C)CN(C(=O)c2c(-c3ccc(F)cc3)cc(C(F)(F)F)n2CC2CCCO2)CCO1 (centres unmarked) [Example 080, (2,2-Dimethyl-morpholin-4-yl)-[3-(4-fluorophenyl)-1-(tetrahydro-furan-2-yl-methyl)-5-(trifluoromethyl)-1H-pyrrol-2-yl]-methanone] | 75 to 95%
6 | O=C(c1c(-c2ccc(F)cc2)cc(C(F)(F)F)n1CC1CCCO1)N1CCOCC1 (centres unmarked) [Example 081, [3-(4-Fluorophenyl)-1-(tetrahydro-furan-2-yl-methyl)-5-(trifluoromethyl)-1H-pyrrol-2-yl]-morpholin-4-yl-methanone] | 40 to 75%
7 | O=C(NC1CC1)c1c(-c2ccc(F)cc2)cc(C(F)(F)F)n1CC1CCCO1 (centres unmarked) [Example 082, N-Cyclopropyl-3-(4-fluorophenyl)-1-(tetrahydro-furan-2-yl-methyl)-5-(trifluoromethyl)-1H-pyrrole-2-carboxylic acid amide] | 40 to 75%
8 | CN(CC(C)(C)C)C(=O)c1c(-c2ccc(Cl)cc2)cc(C(F)(F)F)n1CC1CCCO1 (centres unmarked) [Example 083, 3-(4-Chlorophenyl)-N-(2,2-dimethyl-propyl)-N-methyl-1-(tetrahydro-furan-2-yl-methyl)-5-(trifluoromethyl)-1H-pyrrole-2-carboxylic acid amide] | 75 to 95%
9 | Cc1c(-c2ccc(Cl)cc2)c(C(=O)N2CCOC(C)(C)C2)n(CC2CC2)c1C(F)(F)F [Example 084, [3-(4-Chlorophenyl)-1-(cyclopropyl-methyl)-4-methyl-5-(trifluoromethyl)-1H-pyrrol-2-yl]-(2,2-dimethyl-morpholin-4-yl)-methanone] | > 95%
10 | Cc1c(-c2ccc(Cl)cc2)c(C(=O)N2CCOC(C)(C)C2)n(CC2CCC2)c1C(F)(F)F [Example 085, [3-(4-Chlorophenyl)-1-(cyclobutyl-methyl)-4-methyl-5-(trifluoromethyl)-1H-pyrrol-2-yl]-(2,2-dimethyl-morpholin-4-yl)-methanone] | 75 to 95%
11 | Cc1c(-c2ccc(Cl)cc2)c(C(=O)N2CCOCC2)n(CC#CC2CC2)c1C(F)(F)F [Example 086, [3-(4-Chlorophenyl)-1-(3-cyclopropyl-prop-2-ynyl)-4-methyl-5-(trifluoromethyl)-1H-pyrrol-2-yl]-morpholin-4-yl-methanone] | > 95%
12 | Cc1c(-c2ccc(Cl)cc2)c(C(=O)N2CCOCC2)n(CC2(C)CC2)c1C(F)(F)F [Example 087, [3-(4-Chlorophenyl)-4-methyl-1-[(1-methyl-cyclopropyl)-methyl]-5-(trifluoromethyl)-1H-pyrrol-2-yl]-morpholin-4-yl-methanone] | > 95%
13 | CN(CC(C)(C)C)C(=O)c1c(-c2ccc(Cl)cc2)cc(C(F)(F)F)n1CC1(N)CC1 [Example 088, 1-[(1-Amino-cyclopropyl)-methyl]-3-(4-chlorophenyl)-N-(2,2-dimethyl-propyl)-N-methyl-5-(trifluoromethyl)-1H-pyrrole-2-carboxylic acid amide] | 75 to 95%
14 | Cc1c(-c2ccc(Cl)cc2)c(C(=O)N2CCOCC2)n(CC2(O)CC2)c1C(F)(F)F [Example 089, [3-(4-Chlorophenyl)-1-[(1-hydroxy-cyclopropyl)-methyl]-4-methyl-5-(trifluoromethyl)-1H-pyrrol-2-yl]-morpholin-4-yl-methanone] | > 95%
15 | CN(CC(C)(C)C)C(=O)c1c(-c2ccc(Cl)cc2)cc(C(F)(F)F)n1CC1(O)CCCC1 [Example 090, 3-(4-Chlorophenyl)-N-(2,2-dimethyl-propyl)-1-[(1-hydroxy-cyclopentyl)-methyl]-N-methyl-5-(trifluoromethyl)-1H-pyrrole-2-carboxylic acid amide] | 75 to 95%
16 | CN(CC(C)(C)C)C(=O)c1c(-c2ccc(Cl)cc2)cc(C(F)(F)F)n1CC1CCCN1 (centres unmarked) [Example 091, 3-(4-Chlorophenyl)-N-(2,2-dimethyl-propyl)-N-methyl-1-(pyrrolidin-2-yl-methyl)-5-(trifluoromethyl)-1H-pyrrole-2-carboxylic acid amide] | > 95%
17 | Cc1c(-c2ccc(Cl)cc2)c(C(=O)N(C)CCS(C)(=O)=O)n(CC2(N)CC2)c1C(F)(F)F [Example 093, 1-[(1-Amino-cyclopropyl)-methyl]-3-(4-chlorophenyl)-N,4-dimethyl-N-(2-methylsulfonyl-ethyl)-5-(trifluoromethyl)-1H-pyrrole-2-carboxylic acid amide] | 75 to 95%
18 | Cc1c(-c2ccc(Cl)cc2)c(C(=O)N(C)CCS(C)(=O)=O)n(CC2(O)CCCC2)c1C(F)(F)F [Example 094, 3-(4-Chlorophenyl)-1-[(1-hydroxy-cyclopentyl)-methyl]-N,4-dimethyl-N-(2-methylsulfonyl-ethyl)-5-(trifluoromethyl)-1H-pyrrole-2-carboxylic acid amide] | > 95%
19 | Cc1c(-c2ccc(Cl)cc2)c(C(=O)N2CCOCC2)n(CC2(N)CC2)c1C(F)(F)F [Example 095, [1-[(1-Amino-cyclopropyl)-methyl]-3-(4-chlorophenyl)-4-methyl-5-(trifluoromethyl)-1H-pyrrol-2-yl]-morpholin-4-yl-methanone] | 75 to 95%
20 | Cc1c(-c2ccc(Cl)cc2)c(C(=O)N2CCOCC2)n(CC2(O)CCCC2)c1C(F)(F)F [Example 096, [3-(4-Chlorophenyl)-1-[(1-hydroxy-cyclopentyl)-methyl]-4-methyl-5-(trifluoromethyl)-1H-pyrrol-2-yl]-morpholin-4-yl-methanone] | 75 to 95%
21 | Cc1c(-c2ccc(Cl)cc2)c(C(=O)N2CCOCC2)n(CC2CCOCC2)c1C(F)(F)F [Example 097, [3-(4-Chlorophenyl)-4-methyl-1-(tetrahydro-pyran-4-yl-methyl)-5-(trifluoromethyl)-1H-pyrrol-2-yl]-morpholin-4-yl-methanone] | > 95%
22 | Cc1c(-c2ccc(Cl)cc2)c(C(=O)N2CCOCC2)n(CCN2CC(F)(F)C2)c1C(F)(F)F [Example 098, [3-(4-Chlorophenyl)-1-[2-(3,3-difluoro-azetidin-1-yl)-ethyl]-4-methyl-5-(trifluoromethyl)-1H-pyrrol-2-yl]-morpholin-4-yl-methanone] | > 95%
23 | Cc1c(-c2ccc(Cl)cc2)c(C(=O)N2CCOCC2)n(CCS(C)(=O)=O)c1C(F)(F)F [Example 099, [3-(4-Chlorophenyl)-4-methyl-1-(2-methylsulfonyl-ethyl)-5-(trifluoromethyl)-1H-pyrrol-2-yl]-morpholin-4-yl-methanone] | 40 to 75%
24 | CN(CC(C)(C)C)C(=O)c1c(-c2ccc(Cl)cc2)cc(C(F)(F)F)n1CC1(C#N)CC1 [Example 100, 3-(4-Chlorophenyl)-1-[(1-cyano-cyclopropyl)-methyl]-N-(2,2-dimethyl-propyl)-N-methyl-5-(trifluoromethyl)-1H-pyrrole-2-carboxylic acid amide] | 75 to 95%
25 | Cc1c(-c2ccc(Cl)cc2)c(C(=O)N2CCOC(C)(C)C2)n(C)c1C(F)(F)F [Example 102, [3-(4-Chlorophenyl)-1,4-dimethyl-5-(trifluoromethyl)-1H-pyrrol-2-yl]-(2,2-dimethyl-morpholin-4-yl)-methanone] | 75 to 95%
26 | CCn1c(C(=O)N2CCOC(C)(C)C2)c(-c2ccc(Cl)cc2)c(C)c1C(F)(F)F [Example 103, [3-(4-Chlorophenyl)-1-ethyl-4-methyl-5-(trifluoromethyl)-1H-pyrrol-2-yl]-(2,2-dimethyl-morpholin-4-yl)-methanone] | 75 to 95%
27 | Cc1c(-c2ccc(Cl)cc2)c(C(=O)N2CC3CC2CO3)n(CC(C)C)c1C(F)(F)F (centres unmarked) [Example 104, [3-(4-Chlorophenyl)-4-methyl-1-(2-methyl-propyl)-5-(trifluoromethyl)-1H-pyrrol-2-yl]-(2-oxa-5-azabicyclo[2.2.1]heptan-5-yl)-methanone] | > 95%
28 | Cc1c(-c2ccc(Cl)cc2)c(C(=O)N(C)CC(C)(C)C(N)=O)n(C(C)C)c1C(F)(F)F [Example 105, N-(2-Carbamoyl-2-methyl-propyl)-3-(4-chlorophenyl)-1-isopropyl-N,4-dimethyl-5-(trifluoromethyl)-1H-pyrrole-2-carboxylic acid amide] | 75 to 95%
29 | Cc1c(-c2ccc(Cl)cc2)c(C(=O)N(C)CC(C)(C)C#N)n(C(C)C)c1C(F)(F)F [Example 106, 3-(4-Chlorophenyl)-N-(2-cyano-2-methyl-propyl)-1-isopropyl-N,4-dimethyl-5-(trifluoromethyl)-1H-pyrrole-2-carboxylic acid amide] | 75 to 95%
